From US10988477B2 (Merck Patent GmbH, priority 2018, dated 2021) come the findings set out here.

One assay deals with GCN2 kinase (Homo sapiens, UniProt Q9P2K8). The experiment in a line: GCN2 enzyme inhibition assay (Transcreener ADP2 fluorescence polarization). Format: biochemical. As to conditions: compounds of Formula II; 280 μM ATP, 4 nM GCN2 kinase. The essentials:
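4 nM GCN2 + 200 μM (RS)7 + compound (0–8 μM), 10 min preinc.; start with ATP (280 μM final); 1 h, 25 °C; pH 7.5 Tris/NaCl/MgCl2/DTT; ADP FP readout; IC50, Ki(app) via tight-binding fit.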

In assay [1] the target is intracellular GCN2 (phosphorylation of the GCN2 substrate eIF2α) (Homo sapiens, UniProt Q9P2K8). The experiment in a line: GCN2 cellular inhibition assay (AlphaScreen SureFire P-eIF2α Ser51, borrelidin-treated U2OS cells). As to conditions: compounds of Formula II; biomarker assay, phosphorylated eIF2α Ser51 in borrelidin-treated U2OS cells. It is filed as cell-based. The essentials: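 U2OS, overnight attach; cpd 4-fold serial dil. from 40 μM final; borrelidin 10 μM, 1 h 37 °C/5% CO2; lyse; AlphaScreen P-eIF2α Ser51 (acceptor 2 h, donor overnight, RT, dark); % inhib. vs borrelidin-only.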

Where only a bound is given, the exact number is not on record here.

Chain of GCN2 kinase (Q9P2K8 whole entry): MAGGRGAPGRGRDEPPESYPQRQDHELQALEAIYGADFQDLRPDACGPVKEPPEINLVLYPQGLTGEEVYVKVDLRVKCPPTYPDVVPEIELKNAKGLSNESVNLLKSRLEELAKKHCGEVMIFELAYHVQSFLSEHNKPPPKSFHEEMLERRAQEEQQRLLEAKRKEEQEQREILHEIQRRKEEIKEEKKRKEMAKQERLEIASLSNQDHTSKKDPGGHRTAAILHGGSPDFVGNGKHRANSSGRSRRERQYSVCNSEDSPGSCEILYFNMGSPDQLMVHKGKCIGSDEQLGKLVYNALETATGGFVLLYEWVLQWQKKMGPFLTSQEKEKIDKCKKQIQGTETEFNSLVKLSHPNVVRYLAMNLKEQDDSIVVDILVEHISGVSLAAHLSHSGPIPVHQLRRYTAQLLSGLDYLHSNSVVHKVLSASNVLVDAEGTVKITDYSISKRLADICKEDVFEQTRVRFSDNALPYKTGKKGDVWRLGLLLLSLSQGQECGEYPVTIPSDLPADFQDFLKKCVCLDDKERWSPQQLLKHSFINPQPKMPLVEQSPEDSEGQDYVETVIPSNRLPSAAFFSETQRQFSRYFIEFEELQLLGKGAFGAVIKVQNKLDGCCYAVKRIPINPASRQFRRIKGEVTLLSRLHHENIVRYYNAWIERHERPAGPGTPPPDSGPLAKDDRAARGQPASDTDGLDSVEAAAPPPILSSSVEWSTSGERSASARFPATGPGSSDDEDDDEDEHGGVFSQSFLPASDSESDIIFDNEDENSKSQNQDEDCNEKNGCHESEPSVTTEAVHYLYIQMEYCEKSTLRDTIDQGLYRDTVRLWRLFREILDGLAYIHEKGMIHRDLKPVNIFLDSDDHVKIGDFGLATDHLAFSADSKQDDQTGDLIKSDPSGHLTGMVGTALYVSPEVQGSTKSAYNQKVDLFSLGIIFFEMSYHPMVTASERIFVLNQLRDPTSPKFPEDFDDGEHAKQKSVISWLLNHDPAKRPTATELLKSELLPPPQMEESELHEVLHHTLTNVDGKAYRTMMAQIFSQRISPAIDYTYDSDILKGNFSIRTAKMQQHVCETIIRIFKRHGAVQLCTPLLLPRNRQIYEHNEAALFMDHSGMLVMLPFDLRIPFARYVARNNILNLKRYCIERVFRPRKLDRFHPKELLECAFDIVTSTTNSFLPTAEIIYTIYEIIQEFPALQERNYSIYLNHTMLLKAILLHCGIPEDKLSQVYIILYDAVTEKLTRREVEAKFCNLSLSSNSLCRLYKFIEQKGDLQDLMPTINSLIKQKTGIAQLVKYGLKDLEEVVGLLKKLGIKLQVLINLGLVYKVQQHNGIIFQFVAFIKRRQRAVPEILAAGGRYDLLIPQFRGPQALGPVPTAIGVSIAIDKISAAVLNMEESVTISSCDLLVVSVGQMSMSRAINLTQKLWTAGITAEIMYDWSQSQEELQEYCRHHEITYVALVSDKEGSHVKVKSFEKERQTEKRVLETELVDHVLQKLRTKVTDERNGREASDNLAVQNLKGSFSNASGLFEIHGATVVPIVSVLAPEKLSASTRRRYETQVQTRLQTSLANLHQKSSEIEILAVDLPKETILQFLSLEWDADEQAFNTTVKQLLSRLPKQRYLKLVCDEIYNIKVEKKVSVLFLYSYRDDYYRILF
Chain of intracellular GCN2 (phosphorylation of the GCN2 substrate eIF2α) (Q9P2K8 whole entry): as above

Regarding `CCN1CCN(c2cc(-c3cnc4ccc(C(F)F)nn34)ncn2)C(C)C1CNS(C)(=O)=O` (centres unmarked) [II-482, N-((4-(6-(6-(difluoromethyl)imidazo[12-b]pyridazin-3-yl)pyrimidin-4-yl)-1-ethyl-3-methylpiperazin-2-yl)methyl)methanesulfonamide], the Ki at GCN2 kinase was less than 10 nM. In assay [1], the IC50 is less than 500 nM.

`NC(=O)CC1CN(c2cc(-c3cnc4ccc(C(F)F)nn34)ncn2)CCN1` (centres unmarked) [II-483, 2-(4-(6-(6-(Difluoromethyl)imidazo[1,2-b]pyridazin-3-yl)pyrimidin-4-yl)piperazin-2-yl)acetamide] yielded a Ki on GCN2 kinase of 10 to 1000 nM. In assay [1], this compound gave an IC50 of more than 5000 nM.

On GCN2 kinase, `C[C@H]1[C@@H](C[S@@](C)(=N)=O)CCCN1c1cc(-c2cnc3ccc(C(F)F)nn23)ncn1` [II-485, (S)-(((2S,3S)-1-(6-(6-(Difluoromethyl)imidazo[1,2-b]pyridazin-3-yl)pyrimidin-4-yl)-2-methylpiperidin-3-yl)methyl)(imino)(methyl)-λ^6-sulfanone] showed a Ki of less than 10 nM. In addition, the IC50 in assay [1] was less than 500 nM.

Turning to `CC1C(CS(C)(=N)=O)CCCN1c1cc(-c2cnc3ccc(C(F)F)nn23)ncn1` (centres unmarked) [II-486, ((1-(6-(6-(Difluoromethyl)imidazo[1,2-b]pyridazin-3-yl)pyrimidin-4-yl)-2-methylpiperidin-3-yl)methyl)(imino)(methyl)-λ^6-sulfanone], at GCN2 kinase, the Ki lay in the range of 10 to 1000 nM. In assay [1], the half-maximal inhibitory concentration (IC50) lay within 500 to 5000 nM.

In the case of `CC1C(CS(C)(=N)=O)CCCN1c1cc(-c2cnc3ccc(C(F)F)nn23)ncn1` (centres unmarked) [II-487, ((1-(6-(6-(Difluoromethyl)imidazo[1,2-b]pyridazin-3-yl)pyrimidin-4-yl)-2-methylpiperidin-3-yl)methyl)(imino)(methyl)-λ^6-sulfanone], the Ki at GCN2 kinase lay within 10 to 1000 nM. This compound gave an IC50 in assay [1] of less than 500 nM.

At GCN2 kinase, `CC1C(CS(C)(=N)=O)CCCN1c1cc(-c2cnc3ccc(C(F)F)nn23)ncn1` (centres unmarked) [II-488, ((1-(6-(6-(Difluoromethyl)imidazo[1,2-b]pyridazin-3-yl)pyrimidin-4-yl)-2-methylpiperidin-3-yl)methyl)(imino)(methyl)-λ^6-sulfanone] registered a Ki of 10 to 1000 nM. For the same compound, in assay [1], the IC50 is more than 5000 nM.

Turning to `CC1CN(c2cc(-c3cnc4ccc(C(F)F)nn34)ncn2)C(C)C(CNS(C)(=O)=O)=C1F` (centres unmarked) [II-491, N-((1-(6-(6-(Difluoromethyl)imidazo[1,2-b]pyridazin-3-yl)pyrimidin-4-yl)-4-fluoro-2,5-dimethyl-1,2,5,6-tetrahydropyridin-3-yl)methyl)methanesulfonamide], the Ki on GCN2 kinase was less than 10 nM. This compound also came in with an IC50 in assay [1] of less than 500 nM.

Compound `CN1CCN(c2cc(-c3cnc4ccc(C(F)F)nn34)ncn2)CC1CC(N)=O` (centres unmarked) [II-492, 2-(4-(6-(6-(Difluoromethyl)imidazo[1,2-b]pyridazin-3-yl)pyrimidin-4-yl)-1-methylpiperazin-2-yl)acetamide] returned an inhibition constant (Ki) on GCN2 kinase of 10 to 1000 nM. The IC50 in assay [1] lay within 500 to 5000 nM.

`CS(=O)(=O)CCC1CCCN(c2cc(-c3cnc4ccc(C(F)F)nn34)ncn2)C1` (centres unmarked) [II-493, 6-(Difluoromethyl)-3-(6-(3-(2-(methylsulfonyl)ethyl)piperidin-1-yl)pyrimidin-4-yl)imidazo[1,2-b]pyridazine] came in with a Ki at GCN2 kinase of 10 to 1000 nM. In assay [1], this compound yielded an IC50 of 500 to 5000 nM.

As for `CC1C(CNS(C)(=O)=O)N(CC2CC2)CCN1c1cc(-c2cnc3ccc(C(F)F)nn23)ncn1` (centres unmarked) [II-495, N-((1-(Cyclopropylmethyl)-4-(6-(6-(difluoromethyl)imidazo[1,2-b]pyridazin-3-yl)pyrimidin-4-yl)-3-methylpiperazin-2-yl)methyl)methanesulfonamide], the Ki at GCN2 kinase was less than 10 nM. In assay [1], the IC50 was less than 500 nM.

On GCN2 kinase, `OCCC1CN(c2cc(-c3cnc4ccc(C(F)F)nn34)ncn2)CCN1` (centres unmarked) [II-496, 2-(4-(6-(6-(Difluoromethyl)imidazo[1,2-b]pyridazin-3-yl)pyrimidin-4-yl)piperazin-2-yl)ethan-1-ol] yielded an inhibition constant Ki of 10 to 1000 nM. For the same compound, in assay [1], the IC50 is more than 5000 nM.

As for `OCCC1CCCN(c2cc(-c3cnc4ccc(C(F)F)nn34)ncn2)C1` (centres unmarked) [II-497, 2-(1-(6-(6-(Difluoromethyl)imidazo[1,2-b]pyridazin-3-yl)pyrimidin-4-yl)piperidin-3-yl)ethan-1-ol], the inhibition constant Ki on GCN2 kinase fell in the range of 10 to 1000 nM. The compound also showed an IC50 in assay [1] of 500 to 5000 nM.

`OCCC1CN(c2cc(-c3cnc4ccc(C(F)F)nn34)ncn2)CCO1` (centres unmarked) [II-498, 2-(4-(6-(6-(Difluoromethyl)imidazo[1,2-b]pyridazin-3-yl)pyrimidin-4-yl)morpholin-2-yl)ethan-1-ol] had a Ki on GCN2 kinase of 10 to 1000 nM. The compound further returned an IC50 in assay [1] of more than 5000 nM.

`OCCC1CCCN(c2cc(-c3cnc4ccc(C(F)(F)F)nn34)ncn2)C1` (centres unmarked) [II-499, 2-(1-(6-(6-(Trifluoromethyl)imidazo[1,2-b]pyridazin-3-yl)pyrimidin-4-yl)piperidin-3-yl)ethan-1-ol]: at GCN2 kinase, the Ki is 10 to 1000 nM. Moreover, the IC50 in assay [1] was in the range of 500 to 5000 nM.

`OCCC1CN(c2cc(-c3cnc4ccc(C(F)(F)F)nn34)ncn2)CCO1` (centres unmarked) [II-500, 2-(4-(6-(6-(Trifluoromethyl)imidazo[1,2-b]pyridazin-3-yl)pyrimidin-4-yl)morpholin-2-yl)ethan-1-ol] showed an inhibitory constant (Ki) at GCN2 kinase of 10 to 1000 nM. Also, in assay [1], the IC50 is more than 5000 nM.

`O=C(O)[C@H]1CCCN(c2cc(-c3cnc4ccc(C(F)(F)F)nn34)ncn2)C1` [II-504, (S)-1-(6-(6-(Trifluoromethyl)imidazo[1,2-b]pyridazin-3-yl)pyrimidin-4-yl)piperidine-3-carboxylic acid]: on GCN2 kinase, the Ki is 10 to 1000 nM. The compound further had an IC50 in assay [1] of more than 5000 nM.

Regarding `O=C(O)[C@H]1CCCN(c2cc(-c3cnc4ccc(C(F)F)nn34)ncn2)C1` [II-505, (S)-1-(6-(6-(Difluoromethyl)imidazo[1,2-b]pyridazin-3-yl)pyrimidin-4-yl)piperidine-3-carboxylic acid], the Ki on GCN2 kinase lay in the range of 10 to 1000 nM. The IC50 in assay [1] was more than 5000 nM.

Regarding `O=C(O)[C@@H]1CCCN(c2cc(-c3cnc4ccc(C(F)(F)F)nn34)ncn2)C1` [II-506, (R)-1-(6-(6-(Trifluoromethyl)imidazo[1,2-b]pyridazin-3-yl)pyrimidin-4-yl)piperidine-3-carboxylic acid], the Ki on GCN2 kinase lay within 10 to 1000 nM. The same compound had an IC50 in assay [1] of more than 5000 nM.

For the compound `CC1CC(CNS(C)(=O)=O)C(C)N(c2cc(-c3cnc4ccc(C(F)F)nn34)ncn2)C1` (centres unmarked) [II-511, N-((1-(6-(6-(Difluoromethyl)imidazo[1,2-b]pyridazin-3-yl)pyrimidin-4-yl)-2,5-dimethylpiperidin-3-yl)methyl)methanesulfonamide], the Ki on GCN2 kinase is less than 10 nM. In addition, the IC50 in assay [1] is less than 500 nM.

`OC[C@H]1CCCN(c2cc(-c3cnc4ccc(C(F)(F)F)nn34)ncn2)C1` [II-516, (S)-(1-(6-(6-(Trifluoromethyl)imidazo[1,2-b]pyridazin-3-yl)pyrimidin-4-yl)piperidin-3-yl)methanol]: the Ki at GCN2 kinase lay in the range of 10 to 1000 nM. Also, in assay [1], the IC50 lay in the range of 500 to 5000 nM.

On GCN2 kinase, `OCC1CN(c2cc(-c3cnc4ccc(C(F)(F)F)nn34)ncn2)CCO1` (centres unmarked) [II-518, (4-(6-(6-(Trifluoromethyl)imidazo[1,2-b]pyridazin-3-yl)pyrimidin-4-yl)morpholin-2-yl)methanol] registered a Ki of 10 to 1000 nM. Moreover, the IC50 in assay [1] was more than 5000 nM.

At GCN2 kinase, `OC[C@H]1CCCN(c2cc(-c3cnc4ccc(C(F)F)nn34)ncn2)C1` [II-519, (S)-(1-(6-(6-(Difluoromethyl)imidazo[1,2-b]pyridazin-3-yl)pyrimidin-4-yl)piperidin-3-yl)methanol] displayed a Ki of 10 to 1000 nM. The IC50 in assay [1] was 500 to 5000 nM.

Compound `OC[C@@H]1CCCN(c2cc(-c3cnc4ccc(C(F)F)nn34)ncn2)C1` [II-520, (R)-(1-(6-(6-(Difluoromethyl)imidazo[1,2-b]pyridazin-3-yl)pyrimidin-4-yl)piperidin-3-yl)methanol] gave an inhibition constant (Ki) on GCN2 kinase of 10 to 1000 nM. Besides, the IC50 in assay [1] fell in the range of 500 to 5000 nM.

Compound `OCC1CN(c2cc(-c3cnc4ccc(C(F)F)nn34)ncn2)CCO1` (centres unmarked) [II-521, (4-(6-(6-(Difluoromethyl)imidazo[1,2-b]pyridazin-3-yl)pyrimidin-4-yl)morpholin-2-yl)methanol] came in with a Ki on GCN2 kinase of 10 to 1000 nM. This compound had an IC50 in assay [1] of 500 to 5000 nM.

On GCN2 kinase, `CS(=N)(=O)C1CCCN(c2cc(-c3cnc4ccc(C(F)F)nn34)ncn2)C1` (centres unmarked) [II-522, (1-(6-(6-(Difluoromethyl)imidazo[1,2-b]pyridazin-3-yl)pyrimidin-4-yl)piperidin-3-yl)(imino)(methyl)-λ^6-sulfanone] returned a Ki of 10 to 1000 nM. Moreover, in assay [1], the IC50 lay in the range of 500 to 5000 nM.

On GCN2 kinase, `[2H]C([2H])([2H])N1CCN(c2cc(-c3cnc4ccc(C(F)F)nn34)ncn2)C(C)C1CNS(C)(=O)=O` (centres unmarked) [II-523, N-((4-(6-(6-(Difluoromethyl)imidazo[1,2-b]pyridazin-3-yl)pyrimidin-4-yl)-3-methyl-1-(methyl-d3)piperazin-2-yl)methyl)methanesulfonamide] came in with a Ki of less than 10 nM. Besides, the IC50 in assay [1] is less than 500 nM.

At GCN2 kinase, `CC1CN(c2cc(-c3cnc4ccc(C(F)F)nn34)ncn2)CC(CNS(C)(=O)=O)C1=O` (centres unmarked) [II-525, N-((1-(6-(6-(Difluoromethyl)imidazo[1,2-b]pyridazin-3-yl)pyrimidin-4-yl)-5-methyl-4-oxopiperidin-3-yl)methyl)methanesulfonamide] showed a Ki of less than 10 nM. For the same compound, in assay [1], the IC50 is less than 500 nM.

Turning to `CC1CN(c2cc(-c3cnc4ccc(C(F)F)nn34)ncn2)CC(CNS(C)(=O)=O)C1=O` (centres unmarked) [II-526, N-((1-(6-(6-(Difluoromethyl)imidazo[1,2-b]pyridazin-3-yl)pyrimidin-4-yl)-5-methyl-4-oxopiperidin-3-yl)methyl)methanesulfonamide], the Ki at GCN2 kinase was less than 10 nM. This compound had an IC50 in assay [1] of less than 500 nM.
